In ChEMBL document CHEMBL1201862, “PubChem BioAssay data set” (2004):
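Dose response: 5 concentrations. Exposure: 48 h. Format: 96-well plates. Endpoint: linear interpolation; highest concentration if not reached. GI50 is the concentration that inhibits growth by half.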 Activity calls are given as the source filed them. Rule as the data show it: active = GI50 up to about 1.1 µM and inactive = higher.

Columns and labels:
Test in all cases: NCI-60 cell line screen, 48 h
[1] = tested on: 786-0
[2] = tested on: MCF7
[3] = tested on: BT-549
[4] = tested on: SK-OV-3
[5] = tested on: HOP-62
[6] = tested on: NCI-H460
[7] = tested on: T47D
[8] = tested on: TK-10
[9] = tested on: HCT-15
[10] = tested on: SK-MEL-2
[11] = tested on: SNB-19
[12] = tested on: SNB-75
[13] = tested on: HCT-116
[14] = tested on: CCRF-CEM
[15] = tested on: UO-31
[16] = tested on: ACHN
[17] = tested on: COLO 205
[18] = tested on: PC-3
[19] = tested on: OVCAR-4
[20] = tested on: M14
[21] = tested on: OVCAR-8
[22] = tested on: EKVX
[23] = tested on: U-251
[24] = tested on: KM12
[25] = tested on: MDA-MB-231
[26] = tested on: SW-620
[27] = tested on: SF-295
[28] = tested on: SK-MEL-28
[29] = tested on: CAKI-1
[30] = tested on: IGROV-1
[31] = tested on: HOP-92
[32] = tested on: NCI/ADR-RES
[33] = tested on: MOLT-4
[34] = tested on: HCC 2998
[35] = tested on: NCI-H226
[36] = tested on: Hs-578T
[37] = tested on: SR
[38] = tested on: A498
[39] = tested on: DU-145
[40] = tested on: RPMI-8226
[41] = tested on: HT-29
[42] = tested on: SF-539
[43] = tested on: K562
[44] = tested on: LOX IMVI
[45] = tested on: HL-60
[46] = tested on: MDA-MB-435
[47] = tested on: UACC-257
[48] = tested on: SF-268
[49] = tested on: RXF 393
[50] = tested on: SK-MEL-5
[51] = tested on: NCI-H23
[52] = tested on: UACC-62
[53] = tested on: Malme-3M
[54] = tested on: NCI-H522
[55] = tested on: SN12C
[56] = tested on: A549
[57] = tested on: OVCAR-5
[58] = tested on: OVCAR-3
[59] = tested on: MDA-N

Measured: GI50

CC1=NN(c2nc(N)nc(COc3ccc(N)cc3)n2)C(C)(C)C1
> 100 µM: [9]
inactive: [1] > 100 µM | [2] > 100 µM | [3] > 100 µM | [4] > 100 µM | [5] > 100 µM | [6] > 100 µM | [7] > 100 µM | [8] > 100 µM | [10] > 100 µM | [11] > 100 µM | [12] > 100 µM | [13] > 100 µM | [14] > 100 µM | [15] > 100 µM | [16] > 100 µM | [17] > 100 µM | [18] > 100 µM | [19] > 100 µM | [20] > 100 µM | [21] > 100 µM | [22] > 100 µM | [23] > 100 µM | [24] > 100 µM | [25] > 100 µM | [26] > 100 µM | [27] > 100 µM | [28] > 100 µM | [29] > 100 µM | [30] > 100 µM | [31] > 100 µM | [32] > 100 µM | [33] > 100 µM | [34] > 100 µM | [35] > 100 µM | [36] > 100 µM | [37] > 100 µM | [38] > 100 µM | [39] > 100 µM | [40] > 100 µM | [41] > 100 µM | [42] > 100 µM | [43] > 100 µM | [44] > 100 µM | [45] > 100 µM | [46] > 100 µM | [47] > 100 µM | [48] > 100 µM | [49] > 100 µM | [50] > 100 µM | [51] > 100 µM | [52] > 100 µM

Cc1cc2c(C(C)C)c(O)c(O)c(/C=N/c3cc(C(F)(F)F)ccc3Cl)c2c(O)c1-c1c(C)cc2c(C(C)C)c(O)c(O)c(/C=N/c3cc(C(F)(F)F)ccc3Cl)c2c1O
inactive: [1] 50.6 µM | [2] 27.7 µM | [3] 28.3 µM | [4] 12.5 µM | [5] 70.5 µM | [6] 31.3 µM | [7] 29.6 µM | [8] 60.7 µM | [10] 35.3 µM | [53] 32.8 µM | [11] 28.1 µM | [13] 74.8 µM | [14] > 100 µM | [54] 21.5 µM | [15] 30.2 µM | [16] 24.9 µM | [17] 31.2 µM | [18] 35 µM | [20] 75.3 µM | [21] 44.5 µM | [22] 98.6 µM | [23] 19.3 µM | [24] 30.1 µM | [25] 25.6 µM | [26] 58.2 µM | [28] 38.1 µM | [29] 48.3 µM | [55] 49.1 µM | [30] 25.1 µM | [31] 16.6 µM | [32] 63.5 µM | [34] 62.7 µM | [35] 29 µM | [36] > 100 µM | [37] 25.4 µM | [38] 64.3 µM | [39] > 100 µM | [40] 50.7 µM | [41] 32.5 µM | [42] 58.6 µM | [56] 38.5 µM | [43] 39.4 µM | [44] 22.6 µM | [45] 26.9 µM | [46] 32.6 µM | [47] 37.4 µM | [48] 37.2 µM | [49] 28.8 µM | [57] 77.3 µM | [58] 37.3 µM | [50] 23.6 µM | [51] 57.8 µM | [52] 24.6 µM
34.8 µM: [9]

COc1ccc(NC(=S)Nc2cc(C)ccn2)cc1
inactive: [1] > 100 µM | [2] > 100 µM | [3] > 100 µM | [5] > 100 µM | [6] > 100 µM | [7] > 100 µM | [8] > 100 µM | [10] > 100 µM | [11] > 100 µM | [12] > 100 µM | [13] > 100 µM | [14] > 100 µM | [15] > 100 µM | [16] > 100 µM | [17] > 100 µM | [18] > 100 µM | [19] > 100 µM | [21] > 100 µM | [22] > 100 µM | [23] > 100 µM | [24] > 100 µM | [25] > 100 µM | [26] > 100 µM | [28] > 100 µM | [29] > 100 µM | [30] > 100 µM | [31] > 100 µM | [32] 28.6 µM | [33] > 100 µM | [34] > 100 µM | [35] > 100 µM | [36] > 100 µM | [37] > 100 µM | [38] > 100 µM | [39] > 100 µM | [40] > 100 µM | [41] > 100 µM | [42] > 100 µM | [43] > 100 µM | [44] > 100 µM | [45] > 100 µM | [46] > 100 µM | [47] > 100 µM | [48] > 100 µM | [49] > 100 µM | [50] > 100 µM | [51] > 100 µM | [52] > 100 µM
> 100 µM: [9]

CSc1ncc2c(C#N)c3n(C)c4ccccc4n3c(=O)c2n1
> 100 µM: [9]
inactive: [1] > 100 µM | [2] > 100 µM | [3] > 100 µM | [4] > 100 µM | [5] > 100 µM | [6] > 100 µM | [7] > 100 µM | [8] > 100 µM | [10] > 100 µM | [53] > 100 µM | [11] > 100 µM | [12] > 100 µM | [13] > 100 µM | [14] > 100 µM | [15] > 100 µM | [16] > 100 µM | [17] > 100 µM | [18] > 100 µM | [19] > 100 µM | [20] > 100 µM | [21] > 100 µM | [22] > 100 µM | [23] > 100 µM | [24] > 100 µM | [25] > 100 µM | [26] > 100 µM | [27] > 100 µM | [28] > 100 µM | [29] > 100 µM | [55] > 100 µM | [30] > 100 µM | [31] > 100 µM | [32] > 100 µM | [33] > 100 µM | [34] > 100 µM | [35] > 100 µM | [36] > 100 µM | [37] > 100 µM | [38] > 100 µM | [39] > 100 µM | [40] > 100 µM | [41] > 100 µM | [42] > 100 µM | [56] > 100 µM | [43] > 100 µM | [44] > 100 µM | [45] > 100 µM | [46] > 100 µM | [47] > 100 µM | [48] > 100 µM | [49] > 100 µM | [57] > 100 µM | [58] > 100 µM | [50] > 100 µM | [51] > 100 µM | [52] > 100 µM

CC(C)/C(Cl)=N\OC(=O)Nc1ccc(F)c([N+](=O)[O-])c1
active: [14] 0.902 µM | [54] 0.792 µM | [45] 1.01 µM
2.59 µM: [9]
inactive: [1] 2.78 µM | [2] 17.7 µM | [3] 13.4 µM | [4] 19.1 µM | [5] 17.8 µM | [6] 2.41 µM | [59] 14 µM | [8] 6.22 µM | [10] 16.2 µM | [53] 1.16 µM | [11] 16.7 µM | [12] 14.2 µM | [13] 3.08 µM | [15] 6.56 µM | [16] 1.79 µM | [17] 2.03 µM | [18] 18.1 µM | [19] 4.07 µM | [20] 3.88 µM | [21] 5.52 µM | [22] 11.7 µM | [23] 16.4 µM | [24] 14.6 µM | [25] 12.7 µM | [26] 2.35 µM | [27] 19.1 µM | [28] 12.6 µM | [29] 1.81 µM | [55] 5.83 µM | [30] 6.53 µM | [31] 2.22 µM | [32] 18.4 µM | [33] 1.57 µM | [34] 10.5 µM | [35] 23.7 µM | [36] 12.1 µM | [37] 5.65 µM | [38] 19.2 µM | [39] 18.2 µM | [40] 2.43 µM | [41] 15.9 µM | [42] 3 µM | [56] 23.9 µM | [43] 2.87 µM | [44] 4.54 µM | [46] 12.3 µM | [47] 16.1 µM | [48] 14.3 µM | [49] 18 µM | [57] 20.6 µM | [58] 14.2 µM | [50] 8.43 µM | [51] 17.1 µM | [52] 17.6 µM
